# Reference: paper PMC5576140 (Antiviral research, 2017)
# Like-named read-outs stand apart in the source and are kept apart here.
# Tests used:
# [1] = tested on: HIV-1 X4LAI.04; test: HIV-1 inhibition in MT-4 cell cultures; format: cell-based; settings: read-out: EC50 (MT-4)
# [2] = tested on: M. tuberculosis MS-115; test: Anti-TB activity, growth in Middlebrook 7H9 medium, BACTEC MGIT960; format: cell-based; settings: clinical MDR strain
# [3] = tested on: M. tuberculosis H37Rv; test: as above; format: cell-based; settings: growth inhibition not less than 99%
# [4] = format: in vitro ADME; settings: for hydrolysis products found in human blood serum: HPLC-HRMS; for stability in human blood serum: 15 h
# [5] = Chemical stability at pH 2.2, 7.4 and 9.0; format: physicochemical; settings: pH 9.0 (glycine+NaOH)
# [6] = Viability assay in MT-4 cell cultures; format: cell-based; settings: human, MT-4 cells
# [7] = MT-4 cell cultures, HIV-1 X4LAI.04, 3 days, p24gag
# [8] = growth inhibition not less than 99%
# [9] = value in brackets, same MIC in μM
Compound,"EC50 [1, 7] [nM]","MIC (99) M.tuberculosis MS-115 [2, 8] [µg/mL]","MIC (99) M.tuberculosis MS-115 [2, 9] [µM]",MIC (99) M.tuberculosis H37Rv [3] [µg/mL],hydrolysis products found in human blood serum [4],stability in human blood serum [4],stability to chemical hydrolysis [5],"EC50 ([1]; Human immunodeficiency virus 1, MT4, 72 h) [nM]",CC50 [6] [nM],T1/2 in human blood serum [4] [min]
"CCCCCCCCCCc1cn(Cc2cn([C@H]3C[C@H](OC(=O)OC[C@H]4O[C@@H](n5cc(C)c(=O)[nH]c5=O)C[C@@H]4N=[N+]=[N-])[C@@H](COC(=O)OC[C@H]4O[C@@H](n5cc(C)c(=O)[nH]c5=O)C[C@@H]4N=[N+]=[N-])O3)c(=O)[nH]c2=O)nn1 [Compound 3, 3′,5′-di-O-[AZT-carbonyl]-5-[(4-decyl-1,2,3-triazol-1-yl)methyl]-2′-deoxyuridine]",80,10,9.7,20,"1, 2, AZT, and dU^R",,,,,
"CCCCCCCCCCc1cn(Cc2cn([C@H]3C[C@H](O)[C@@H](COC(=O)OC[C@H]4O[C@@H](n5cc(C)c(=O)[nH]c5=O)C[C@@H]4N=[N+]=[N-])O3)c(=O)[nH]c2=O)nn1 [Compound 1, 5′-O-[AZT-carbonyl]-5-[(4-decyl-1,2,3-triazol-1-yl)methyl]-2′-deoxyuridine]",390,50,67,50,both AZT and dU^R derivative,,,,,
"[AZT]-N3-propyl-N3-[1-N-[4′-(o,o-dimethylbenzyl)cyclopent-2′-enyl]uracil] [Compound 4]",19800,,,,,only slight debenzoylation at the carbocyclic fragment,stable,,,
"Cc1cn([C@H]2C[C@H](N=[N+]=[N-])[C@@H](CO)O2)c(=O)[nH]c1=O [AZT, 3′-azido-3′-deoxythymidine, reference compound]",,,,,,,,30,> 100000,
"CCCCCCCCCCc1cn(Cc2cn([C@H]3C[C@H](OC(=O)OC[C@H]4O[C@@H](n5cc(C)c(=O)[nH]c5=O)C[C@@H]4N=[N+]=[N-])[C@@H](CO)O3)c(=O)[nH]c2=O)nn1 [Compound 2, 3′-O-[AZT-carbonyl]-5-[(4-decyl-1,2,3-triazol-1-yl)methyl]-2′-deoxyuridine]",70,20,27,10,both AZT and dU^R derivative,,,,,
"Cc1cn([C@H]2C[C@H](O)[C@@H](COP(=O)(O)O)O2)c(=O)[nH]c1=O [TMP, reference compound]",,,,,,,,,,20
"CCCCOc1ccc(Nc2cn(C3C=CC(O)C3)c(=O)n(CCCn3c(=O)c(C)cn(C4CC(N=[N+]=[N-])C(CO)O4)c3=O)c2=O)cc1 (stereo not drawn) [Compound 5, [AZT]-N3-propyl-N3-[1-N-(4′-hydroxycyclopent-2′-enyl)-5-(p-butoxyphenylamino)]uracil]",12900,50,75,> 50,,stable,stable,,,
